Consider twelve molecules from ChEMBL document CHEMBL3272085, “Quantitative structure-activity relationships. 2. A mixed approach, based on Hansch and Free-Wilson Analysis” (1976).

Each structure is given as a SMILES string.

Type in all cases: functional
One experiment deals with Enterococcus faecalis. In words: Antimicrobial activity against Streptococcus faecalis.
The next experiment relates to Staphylococcus aureus. In words: Antimicrobial activity against Staphylococcus aureus.
In the next experiment the test system is Bacillus subtilis. As to the kind of experiment: Antimicrobial activity against Bacillus subtilis.
Another experiment relates to Bacillus cereus. In words: Antimicrobial activity against Bacillus cereus.
The test system of a further experiment is Micrococcus luteus. In words: Antimicrobial activity against Sarcina lutea.
Another experiment has as its system Wickerhamomyces anomalus. In words: Antimicrobial activity against Hansenula anomala.
Another experiment concerns Aspergillus niger. In words: Antimicrobial activity against Aspergillus niger.

With `C=C(C)C(=O)Oc1ccccc1`, the “log(1/C)” value in the experiment with Enterococcus faecalis, with Staphylococcus aureus, in the experiment with Bacillus subtilis, in the experiment with Bacillus cereus, in the experiment with Micrococcus luteus and in the experiment on Wickerhamomyces anomalus was 2.89 in each case.
In the case of `C=C(C)C(=O)Oc1ccccc1Cl`, the “log(1/C)” value stood at 3.08 in the experiment on Enterococcus faecalis; 3.08 in the experiment on Staphylococcus aureus; 3.08 in the experiment on Bacillus subtilis; 3.08 in the experiment on Bacillus cereus; 3.08 with Micrococcus luteus; 3.28 in the experiment on Wickerhamomyces anomalus.
Regarding `C=C(C)C(=O)Oc1ccc(Cl)cc1`, the “log(1/C)” value in the experiment with Enterococcus faecalis stood at 3.25; in the experiment on Staphylococcus aureus, 3.12; with Bacillus subtilis, 3.25; in the experiment with Bacillus cereus, 3.25; with Micrococcus luteus it was 3.25; in the experiment on Wickerhamomyces anomalus it was 3.25.
As for `C=C(C)C(=O)Oc1cccc(Cl)c1`, the “log(1/C)” value with Enterococcus faecalis came out at 2.77; with Staphylococcus aureus, 2.91; with Bacillus subtilis, 2.91; in the experiment with Bacillus cereus, 2.91; with Micrococcus luteus, 3.12; in the experiment on Wickerhamomyces anomalus, 3.12.
With `C=C(C)C(=O)Oc1ccc(Cl)cc1Cl`, the “log(1/C)” value with Enterococcus faecalis is on record as 3.49; in the experiment with Staphylococcus aureus, 3.49; in the experiment with Bacillus subtilis it was 3.8; with Bacillus cereus it was 3.49; in the experiment with Micrococcus luteus it was 3.49; with Wickerhamomyces anomalus it was 3.49.
On to `C=C(C)C(=O)Oc1c(Cl)cc(Cl)cc1Cl`, for which the “log(1/C)” value stood at 3.76 in the experiment on Enterococcus faecalis; 3.76 in the experiment on Staphylococcus aureus; 3.76 with Bacillus subtilis; 3.76 in the experiment with Bacillus cereus; 3.24 in the experiment with Micrococcus luteus; 3.46 in the experiment with Wickerhamomyces anomalus.
As to `C=C(C)C(=O)Oc1cc(Cl)c(Cl)cc1Cl`, the “log(1/C)” value turned out to be 3.84 with Enterococcus faecalis; 3.84 in the experiment on Staphylococcus aureus; 3.84 in the experiment with Bacillus subtilis; 3.84 in the experiment on Bacillus cereus; 3.54 with Micrococcus luteus; 3.54 in the experiment on Wickerhamomyces anomalus.
For `C=C(C)C(=O)Oc1c(Cl)cc(Cl)c(Cl)c1Cl`, the “log(1/C)” value in the experiment with Enterococcus faecalis was 3.97; in the experiment on Staphylococcus aureus, 4.97; in the experiment on Bacillus subtilis, 4.67; in the experiment on Bacillus cereus, 4.45; in the experiment on Micrococcus luteus, 3.32; with Wickerhamomyces anomalus it was 3.45.
As for `C=C(C)C(=O)Oc1c(Cl)c(Cl)c(Cl)c(Cl)c1Cl`, the “log(1/C)” value in the experiment on Enterococcus faecalis worked out at 4.71; in the experiment on Staphylococcus aureus, 5.19; with Bacillus subtilis it was 5; in the experiment with Bacillus cereus, 5; with Micrococcus luteus, 3.71; with Wickerhamomyces anomalus, 3.35.
`C=C(C)C(=O)Oc1c(Br)c(Br)c(Br)c(Br)c1Br`: the “log(1/C)” value with Enterococcus faecalis was found to be 3.64; in the experiment on Staphylococcus aureus, 5.32; with Bacillus subtilis it was 5.32; in the experiment on Bacillus cereus it was 3.85; in the experiment with Micrococcus luteus, 3.64; in the experiment on Wickerhamomyces anomalus, 3.35.
On to `Oc1ccc(Cl)cc1` [PARACHLOROPHENOL], for which, in the experiment on Aspergillus niger, the “log(1/C)” value worked out at 3.35.
On to `Oc1ccccc1` [PHENOL], for which, in the experiment on Aspergillus niger, the “log(1/C)” value is 2.35.
